Assay results: patent publication US10968214B2, “KRas G12C inhibitors” (Eli Lilly and Company, priority 2018, dated 2021)
Several values for one entry are separate records, joined by “and”; a condition that tells them apart may be missing. Equal entries are not always repeated. Where two headings read alike, the source gives them in different places.

What was measured:
Kyse-410 = experiment: CellTiterGlo Cell Proliferation Assay, Kyse-410; type: cell-based; conditions: Homo sapiens, KRas G12C, Esophagus, 96 hr
Method: (§1) A panel of tumor cell lines harboring KRas G12C or other KRas mutations are collected (Table 6). All cell lines are from ATCC or other sources indicated.
(§2) Typically cells are cultured in RPMI1640 or Dulbecco's modified Eagle's medium (DMEM, GIBCO) supplemented with 10% FBS (GIBCO, Invitrogen). For 2D culture cells (4×10^3/well) maintained in growth medium described above, are plated onto 96 well tissue culture plates Corning® Cat. 3603) a day before the treatment. For 3D culture 8000 cells/well are seeded onto 96 well ultra-low attachment tissue culture plates (Corning, #3474). The cells are treated compound for 96 hr, and then are analyzed for viability using the CellTiterGlo® Luminescent Cell Viability Assay® (Promega #G7572 for 2D and Promega #G9683 for 3D cultures) according to manufacturer's instructions and an EnVision™ plate reader. Nonlinear regression and sigmoidal dose-response curves are used to calculate the half maximal inhibitory concentration (IC50) with GraphPad Prism 4® software.

H2122 = experiment: Combination 4 day growth assay (Cell TiterGlo), H2122; type: cell-based; conditions: Homo sapiens, NCI-H2122, 96 h, single treatment, read-out: Absolute IC50
Method: (§3) Cell lines for this study are obtained from ATCC and grown under ATCC recommended conditions, except for LXFA-983L, which is obtained from Oncotest/Charles Rivers Laboratories, Wilmington, Mass. and D122-96, which is obtained from L. Eisenbach (Weizman Institute of Science, Rehovot, Israel)—both grown under recommended conditions. […] The proliferation assay is performed as a 4 day growth assay using Cell TiterGlo® as the readout. Briefly, cells are plated in 96-well cell culture plates and allowed to adhere overnight at 37° C. The following day, cells are treated with compounds, either single treatments or combination treatments. First, the testing compounds are serially diluted in DMSO, followed by dilution into media as a 5× concentration with 1% DMSO, and finally added to cells in media to dilute to 1×. The cells are incubated at 37° C. for 4 more days. At the end of the incubation period, Cell TiterGlo® reagent is mixed and added to the wells. After 10 minutes, the luminescence is read by a Perkin Elmer Envision instrument. Absolute IC50 values generated by a 4-parameter logistics model for the single and combination treatments are generated, followed by combination indexes for each combination treatment and cell line. The combination IC50 values are adjusted based on the total concentration of each compound when added together. […] The combination index (CI) measures the degree to which the potency of a combination therapy differs from the expected-if-additive potency and is based on the Loewe definition of additivity.
(§4) [formula] Where • CAy and CBy are the concentrations of therapies A and B that produce an effect, y, when given in combination • ICAy and ICBy are the concentrations of A and B that produce an effect, y, when given individually The biological interpretation of the combination index is as follows: synergistic if the combination index <0.5, additive if the combination index is between 0.5 and 2, and antagonistic if the combination index is >2.

H23 = experiment: CellTiterGlo Cell Proliferation Assay, H23; type: cell-based; conditions: Homo sapiens, NCI-H23, KRas G12C, Lung, 96 hr
Method: as §1, §2

A427 = experiment: CellTiterGlo Cell Proliferation Assay, A427; type: cell-based; conditions: Homo sapiens, A-427, KRas G12D, lung, 96 hr
Method: as §1, §2

D122-96 = experiment: Combination 4 day growth assay (Cell TiterGlo), D122-96; type: cell-based; conditions: Mus musculus, 96 h, single treatment, read-out: Absolute IC50
Method: as §3, §4

SW756 = experiment: CellTiterGlo Cell Proliferation Assay, SW756; type: cell-based; conditions: Homo sapiens, KRas G12C, Cervix, 96 hr
Method: as §1, §2

UM-UC-3 = experiment: Combination 4 day growth assay (Cell TiterGlo), UM-UC-3; type: cell-based; conditions: Homo sapiens, UMUC3, 96 h, single treatment, read-out: Absolute IC50
Method: as §3, §4

H2122 xenograft = experiment: Anti-tumor growth activity, lung cancer H2122 xenograft mouse model; type: in vivo; conditions: for Tumor Growth Inhibition (%) or Regression (−%): H2122 Lung
Method: To evaluate in vivo target inhibition and anti-tumor efficacy of a compound, Human lung cancer cells, H358 or H2122 are implanted into nude mice xenograft tumor models. Either H358 or H2122 cells (10×10^6 in a 1:1 Matrigel® mix, 0.2 mL total volume) are implanted by subcutaneous injection in hind leg of nude female mice (Harlan Laboratories). A total of 5 mice each group are used for efficacy study, and a total of 3-4 mice each group are used for target engagement and PD study. Treatment is initiated with oral administration (gavage) of a test compound or vehicle (20% Captisol®, 25 mM phosphate, pH 2.0 in 0.2 mL volume when the tumor size reaches approximately […]. Tumor growth and body weight are monitored over time to evaluate efficacy and signs of toxicity. Bidimensional measurements of tumors are performed twice a week and tumor volumes are calculated based on mid-axis length and mid-axis width. Tumor volume data are transformed to a log scale to equalize variance across time and treatment groups. The log volume data are analyzed with a two-way repeated measures analysis of variance by time and treatment using the mixed procedures in SAS software (version 8.2). The correlation model for the repeated measures is spatial power. Treated groups are compared to the control group at each time point. The mixed procedure is also used separately for each treatment group to calculate adjusted means and standard errors at each time point. Both analyses account for the autocorrelation within each animal. The adjusted means and standard errors are plotted for each treatment group versus time.
H2122 lung tumor cells (10×10^6) are implanted by subcutaneous injection in hind leg of nude female mice (Taconic Biosciences). A total of 5 mice each group are used for efficacy study.

SW1573 [1] = experiment: Combination 4 day growth assay (Cell TiterGlo), SW1573; type: cell-based; conditions: Homo sapiens, 96 h, single treatment, read-out: Absolute IC50
Method: as §3, §4

SW1463 [2] = experiment: Combination 4 day growth assay (Cell TiterGlo), SW1463; type: cell-based; conditions: Homo sapiens, SW1463, 96 h, single treatment, read-out: Absolute IC50
Method: as §3, §4

SW1573 [3] = experiment: CellTiterGlo Cell Proliferation Assay, SW1573; type: cell-based; conditions: Homo sapiens, KRas G12C, Lung, 96 hr, read-out: IC50 (μM) in 2 D cell proliferation
Method: as §1, §2

SW1463 [4] = experiment: CellTiterGlo Cell Proliferation Assay, SW1463; type: cell-based; conditions: Homo sapiens, KRas G12C, colon, 96 hr, read-out: IC50 (μM) in 2 D cell proliferation
Method: as §1, §2

[5] = read-out: IC50 (μM) in 2 D cell proliferation
[6] = read-out: IC50 (μM) in 3 D spheroid cell proliferation

## C=CC(=O)N1CCN(c2ncnc3c(F)c(-c4ccc(F)c5sc(N)nc45)c(Cl)cc23)CC1 [Example 1, 1-{4-[7-(2-Amino-7-fluoro-1,3-benzothiazol-4-yl)-6-chloro-8-fluoroquinazolin-4-yl]piperazin-1-yl}prop-2-en-1-one]
Kyse-410; [5]
  IC50: 2.94 µM
Kyse-410; [6]
  IC50: 0.471 µM
H2122
  IC50: 2870 nM
H23; [5]
  IC50: 0.08 µM
H23; [6]
  IC50: 0.031 µM
A427; [5]
  IC50: 10.1 µM
A427; [6]
  IC50: 18.6 µM
D122-96
  IC50: 124 nM
SW756; [5]
  IC50: 1.15 µM
SW756; [6]
  IC50: 7.83 µM
UM-UC-3
  IC50: 1830 nM
H2122 xenograft; 30 mg/kg BID, 28 Day, oral, negative = regression
  Tumor Growth Inhibition (%) or Regression (−%): 72.97%
H2122 xenograft; 30 mg/kg QD, 28 Day, oral, negative = regression, 30 mg/kg
  Tumor Growth Inhibition (%) or Regression (−%): 77.17% and 77.2%
H2122 xenograft; 100 mg/kg QD, 28 Day, oral, negative = regression, 100 mg/kg
  Tumor Growth Inhibition (%) or Regression (−%): 91.06% and 91.1%
H2122 xenograft; Example 1 30 mg/kg QDx28
  Tumor Growth Inhibition (%) or Regression (−%): 77.2
H2122 xenograft; Example 1 100 mg/kg QDx28
  Tumor Growth Inhibition (%) or Regression (−%): −1.4
H2122 xenograft; H2122 xenograft mice, 30 mg/kg once or twice daily or 100 mg/kg once daily for 28 days, oral
  animal body weight loss: No significant animal body weight loss was observed
SW1573 [1]
  IC50: > 10 µM
SW1463 [2]
  IC50: 14.1 nM
SW1573 [3]
  IC50: 16.7 µM
SW1463 [4]
  IC50: 0.013 µM
